{"source": "paper PMC12176268", "about": "“Structural Features and Photophysical and Antiproliferative Properties of Me2N‑pbt-Cycloplatinated Complexes with Picolinate Ligands” (Inorganic Chemistry, 2025)", "key": {"[1]": {"test": "Stability in serum-free DMEM containing 5% DMSO by UV–vis", "type": "physicochemical", "settings": "DMEM with 5% DMSO, 25 μM, 37 °C", "text": "The stability of complexes 1–4 was then investigated in more biologically relevant media by UV–visible spectroscopy. First, the stability of the complexes was studied in phosphate-buffered saline (PBS) containing 5% DMSO (Figure S30). […] Only a decrease in the intensity of all bands was observed, which could be attributed to partial aggregation and/or precipitation. […] The stability of complexes 1–4 was next studied in serum-free DMEM cell culture containing 5% DMSO (Figure S31). […] This final species seemed to have spectral features similar to those observed for complex 4 (Figure S31A). […] The similarity of the spectral features of the transformed species in all cases seemed to point to the formation of a common species upon incubation in DMEM, which we tentatively attribute to the decoordination of the picolinate ligands with a substituent-dependent kinetics; the COOH group favored the release of the picolinate ligand, while both NH2 and OH substituents seemed to slow down this process.\nThe UV–vis spectra of complexes 1–4 were recorded in PBS:DMSO (95/5) and serum-free DMEM:DMSO (95/5) at a concentration of 25 μM on a Cary 50 spectrophotometer (Varian)."}, "MCF-10A": {"test_system": "MCF-10A", "test": "MTT cell viability assay on noncancerous MCF-10A cells, dark and 450 nm irradiation", "type": "cell-based, human", "settings": "for EC50: MTT", "text": "(C∧N) cyclometalated Pt(II) complexes have been previously reported to have strong antiproliferative activities when associated with phenanthroline-based, diphosphine, acyclic diamino carbenes, or picolinate ligands. In particular, (Me2N-pbt)-cyclometalated platinum complexes have been previously reported by some of us to have antiproliferative properties in the micromolar range on a panel of cancer cell lines, prompting us to investigate the anticancer properties of complexes 1–4 in dark conditions and, considering their high quantum yield (ϕΔ) of ^1O2 generation, under irradiation conditions. Due to the poor solubility of the complexes in an aqueous environment, complexes 1–4 were first dissolved in DMSO and diluted in the culture media to reach a final concentration of 1% DMSO when incubated with the cells. All complexes were screened against the so-called “triple-negative” breast cancer cell line MDA-MB-231, lung adenocarcinoma cell line A549, and the noncancerous breast cell line MCF-10A for 72 h in dark conditions and under 5 min irradiation at 450 nm (see Experimental Section for details). The irradiation time was kept short to prevent light-induced toxicity of the energetic wavelength observed at longer irradiation times (data not shown). The measurement of the effective concentration at 50% (EC50) was carried out using the classical MTT assay, and the data are provided in Table .\nIn dark conditions, we could notice a strong influence of substituents on the picolinate ligands. […] This can be correlated with its poor stability in the culture medium mentioned above, which might reduce its cellular uptake. […] However, in dark conditions, no particular selectivity for cancer cells could be observed with similar activity measured against the noncancerous cell line MCF-10A. For the “light” experiments, the cells were preincubated with the complexes for 4 h in the dark, irradiated at 450 nm for 5 min, and then put back in the dark until 72 h. The photoactivity index (PI) values, defined as the ratio between the EC50 in dark conditions and the EC50 after irradiation for each cell line, are shown in Figure .\nThe human lung adenocarcinoma cell line A549 and human breast cancer cell line MDA-MB-231 were cultivated in DMEM (Dulbecco’s modified Eagle’s medium) containing GlutaMax I supplemented with 10% FBS at 37 °C in a humidified atmosphere and 5% CO2. The noncancerous cell line MCF-10A was maintained in DMEM:F12 (1:1) cell culture media, 5% heat-inactivated horse serum, supplemented with HEPES (20 mM), L-glutamine (2 mM), epidermal growth factor (20 ng/mL), hydrocortisone (500 ng/mL), cholera toxin (100 ng/mL), and insulin (10 μg/mL). Cell viability was evaluated by using a colorimetric method based on the tetrazolium salt MTT [3-(4,5-dimethylthiazol-2-yl)-2,5-diphenyltetrazolium bromide], which is reduced by viable cells to yield purple formazan crystals. Cells were seeded in 96-well plates at a density of 40000 cells/mL (100 μL per well). Stock solutions were prepared in DMSO for complexes 1–4 and in water for cisplatin. […] For dark experiments, after overnight attachment, a dilution series of the compounds was added to the medium, and the cells were incubated for a further 72 h. For the irradiated experiments, after overnight attachment, a dilution series of the compounds was added to the medium, and the cells were preincubated for 4 h. The cells were then irradiated at 450 nm for 5 min with a Kessil Lamp (power: 3 mW/cm^2, 1.13 × 10^–8 Einstein/s at 20 cm distance between the light source and 96-well plate) and the incubation was continued until 72 h. After 72 h, the medium was removed and the cells were incubated with MTT solution in PBS (10 μL of 5 mg/mL) for 2–3 h. The formed purple formazan crystals were dissolved in 100 μL of DMSO by thorough shaking, and the absorbance at 580 nm was read using a microplate reader (FLUOstar OPTIMA, BMG Labtech). Each test was performed with at least 3 replicates and repeated at least 3 times. […]"}, "[2]": {"test": "Catalytic oxidation and photooxidation of NADH monitored by 1H NMR", "type": "biochemical", "text": "NADH is a key coenzyme involved in many biocatalyzed redox reactions in living cells, and the adequate redox balance of the NADH/NAD^+ redox couple is an important indicator of the metabolic state of the cell. Indeed, the overall in-cell NADH level is higher in cancerous cells than in normal cells to ensure high cell proliferation. Therefore, any selective catalysis of intracellular NADH oxidation to NAD^+ by a metal complex in cancer cells can disrupt its intracellular redox balance, causing cell death. , The catalytic oxidation and photooxidation of NADH (2.8 mM) by 3 (0.8 mM) in DMSO/D2O (5/95 v/v) was monitored by ^1H NMR spectroscopy at 298 K (Figure S34). In the dark (NADH + 3 + dark), a new set of characteristic peaks at 9.33, 9.17, 8.81, 8.48, 8.43, 8.20, 8.16, 6.04, and 5.97 ppm, ascribed to the protons of NAD^+ (∼8%), were detected after 72 h. Light irradiation greatly accelerates the oxidation process. In fact, ∼33% of NADH was oxidized to NAD^+ after irradiation (460 nm, 2 h), with an oxidation turnover number (TON) of 1.4 after 2 h (TOF 0.7 h^–1). […] It should be noted that platinum(II) complexes showing biocatalytic activity on the NADH/NAD^+ redox couple are very scarce.\nThe time dependence of the catalytic oxidation and photooxidation of complex 3 (0.8 mM) with NADH (2.8 mM) in DMSO/D2O (5/95 v/v) was studied for 72 h in the dark or 2h with light irradiation (λexc = 460 nm) by ^1H NMR at 298 K. The conversion of NADH to NAD^+ was approximately calculated from the NMR data."}}, "note": "Like-named read-outs stand apart in the source and are kept apart here.", "data": [{"substance": "[Pt(Me2N-pbt)(3-OH-pic-κN,O)] [Complex 3]", "values": [{"measurement": "stability in serum-free DMEM, UV–vis spectral changes, 24 h", "setting": "[1]; 24 h", "value": "spectral features of both complexes changed"}, {"measurement": "stability in serum-free DMEM, UV–vis spectral changes, first 4 h", "setting": "[1]; first 4 h, dark or with 5 min irradiation at 450 nm", "value": "no spectral changes"}, {"measurement": "photoactivity index (PI), EC50 dark / EC50 after irradiation, MCF-10A", "setting": "MCF-10A; 5 min irradiation at 450 nm", "value": "< 2"}, {"measurement": "EC50", "setting": "MCF-10A; 4 h preincubation, 5 min irradiation at 450 nm, then dark until 72 h, read-out: EC50 MCF-10A light", "value": "520 ± 50", "unit": "nM"}, {"measurement": "EC50", "setting": "MCF-10A; 72 h incubation at 37 °C, dark, read-out: EC50 MCF-10A dark", "value": "1000 ± 200", "unit": "nM"}, {"measurement": "TOF", "setting": "[2]; 460 nm irradiation, 2 h", "value": 0.7, "unit": "h^–1"}, {"measurement": "oxidation turnover number (TON)", "setting": "[2]; 460 nm irradiation, after 2 h", "value": 1.4}, {"measurement": "NADH oxidized to NAD+ after irradiation", "setting": "[2]; NADH 2.8 mM, complex 0.8 mM, DMSO/D2O 5/95, 298 K, 460 nm, 2 h", "value": "~33", "unit": "%"}, {"measurement": "NAD+ formed from NADH in the dark", "setting": "[2]; NADH 2.8 mM, complex 0.8 mM, DMSO/D2O 5/95, 298 K, dark, 72 h", "value": "~8", "unit": "%"}]}]}
